Results from patent publication US20250034161A1, “SPIROCYCLIC COMPOUND AS KRAS-G12C INHIBITOR” (Shanghai Euregen Biopharma Co., Ltd., priority 2020, published 2025).

How the values were obtained:
[1] = Plasma protein binding assay (equilibrium dialysis), human plasma; format: in vitro ADME; conditions: pH 7.4, equilibrium dialysis 5 hours, read-out: Plasma protein binding rate (%) (converted)
Experimental: (§1) • 1. Test purpose: to evaluate the protein binding rate of the test compound in human, dog, monkey, rat and mouse plasma by equilibrium dialysis; • 2. […] Experimental methods: • 0.1 mol/L sodium phosphate and 0.15 mol/L sodium chloride buffer with pH 7.4±0.1 was preheated;
(§2) Preparation of plasma containing test substance: the test compound was dissolved in DMSO to prepare a 10 mmol/l stock solution. 5 μL of stock solution was taken and diluted with 95 μL of acetonitrile to obtain solution A (0.5 mmol/L). 8 μL of solution A was taken and diluted with 192 μL of 0.1 mol/L sodium phosphate buffer to obtain solution B (0.02 mmol/L). 570 μL of plasma was added into a 96-well plate followed by the addition of 30 μL of solution B. The final concentration was 1 μmol/L with 0.01% DMSO.
(§3) The plate was shook at 600 rpm for 10 minutes, covered and stored in a freezer (−20° C.).
(§4) T5 sample preparation (in triplicate): the dialysis device was added with 100 μL of buffer on its receiver side and 100 μL of plasma containing the test compound on its doner side. And the dialysis device was then shook at 37° C. and 120 rpm for 5 hours. At the end of culture, 25 μL of plasma containing the test substance was taken from the plasma side and then added to a 96-well plate, followed by the addition of 25 μL of buffer and 200 μL of acetonitrile solution containing internal standard. […]

[2] = Plasma protein binding assay (equilibrium dialysis), rat plasma; format: in vitro ADME; conditions: pH 7.4, equilibrium dialysis 5 hours, read-out: Plasma protein binding rate (%) (converted)
Experimental: as §1, §2, §3, §4

[3] = Plasma protein binding assay (equilibrium dialysis), mouse plasma; format: in vitro ADME; conditions: pH 7.4, Mice plasma, equilibrium dialysis 5 hours, read-out: Plasma protein binding rate (%) (converted)
Experimental: as §1, §2, §3, §4

CYP 2B6 = biological target: T1, CYP 2B6 (Homo sapiens, UniProt P20813); assay: CYP inhibition test, human liver microsomes, CYP2B6
T1 sequence (P20813 1-491): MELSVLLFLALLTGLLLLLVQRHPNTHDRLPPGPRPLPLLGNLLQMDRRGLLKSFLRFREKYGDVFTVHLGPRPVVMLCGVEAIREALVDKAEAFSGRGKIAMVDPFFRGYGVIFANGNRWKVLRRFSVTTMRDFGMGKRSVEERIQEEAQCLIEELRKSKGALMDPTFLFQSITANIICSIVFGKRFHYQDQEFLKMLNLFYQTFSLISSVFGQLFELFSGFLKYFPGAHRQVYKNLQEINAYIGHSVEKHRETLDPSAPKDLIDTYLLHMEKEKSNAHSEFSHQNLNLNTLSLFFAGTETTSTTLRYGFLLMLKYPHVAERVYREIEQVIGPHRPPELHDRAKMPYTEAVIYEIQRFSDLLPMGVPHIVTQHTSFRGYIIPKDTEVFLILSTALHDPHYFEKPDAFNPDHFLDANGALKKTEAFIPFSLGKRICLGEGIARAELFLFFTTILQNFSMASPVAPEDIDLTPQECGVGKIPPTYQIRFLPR
Experimental: • 1. Test purpose: to evaluate the inhibitory ability of some of the example compounds of the present invention against CYP1A2, 2B6, 2C8, 2C9, 2C19, 2D6 and 3A4 via human liver microsomes. • 2. […] Test method:
• 1. K/Mg buffer: the components were 0.1 mol/L potassium phosphate and 5 mmol/L magnesium chloride with pH 7.4±0.1, preheated. • 2. Solution of the test compound: the test compound was dissolved in dimethyl sulfoxide to prepare a stock solution of 10 mmol/L. 8 μL of 10 mmol/L stock solution was transferred to a 96-well plate containing 12 μL of acetonitrile as the highest concentration point, at 3-fold dilution, for 8 concentrations. • 3. […] Human liver microsomal stock solution: human liver microsomes were dissolved in 0.1 mol/L K/Mg buffer to obtain 20 mg/mL stock solution. • 5. Human liver microsomal working solution: 10 μL of 20 mg/mL human liver microsomal stock solution was taken and added into 990 μL of 0.1 mol/L K/Mg buffer to prepare 0.2 mg/mL human liver microsomal solution. • 6.
600 μL of 0.2 mg/mL human liver microsomal solution and 3 μL of stepwise diluted test compound solution were added to the 96-well plate. 30 μL of the above solution was added on the 96-well plate followed by the addition of 15 μL of the corresponding substrate solution. […]

[4] = Brain tissue distribution test; format: in vivo; conditions: SD rats, PO 20 mg/kg
Experimental: 5 g of methyl cellulose was weighed and dissolved in 1000 mL of purified water to obtain 0.5% methyl cellulose. A required amount of the test compound was weighed and dissolved in 0.5% methylcellulose solution to obtain a suspension of 2 mg/mL.
Administration: SD rats were orally administered (PO) after overnight fasting. Feeding 4 hours after administration.
Sample Collection: 0.5 mL of blood was collected at each time point via the jugular vein. Samples were placed into tubes containing ethylenediamine tetraacetic acid dipotassium salt (K2EDTA) and kept on ice before centrifugation. Within 1 hour after blood collection, blood samples were centrifuged at 2-8° C. and 6800 g for 6 minutes and stored at −80° C. After the rats were euthanized by carbon dioxide inhalation, the brains of the rats were collected, quickly frozen on dry ice, and stored at −80° C. before bioanalysis. The time points for blood collection were 0.5 and 2 hours after oral administration.

| Compound | fraction unbound at 5 h, 1 μmol/L [1] | fraction unbound at 5 h, 1 μmol/L [2] | fraction unbound at 5 h, 1 μmol/L [3] | IC50 (CYP 2B6) [µM] | Brain concentration 0.5 hours after administration (ng/g) ([4]; 0.5 hours) | Brain concentration 2 hours after administration (ng/g) ([4]; 2 hours) | concentration at 0.5 h ([4]; Sprague-Dawley (SD), rat, brain, 0.5 hours, read-out: Brain concentration 0.5 hours after administration) [ng/g] | concentration at 2 h ([4]; Sprague-Dawley (SD), rat, brain, 2 hours, read-out: Brain concentration 2 hours after administration) [ng/g] |
| --- | --- | --- | --- | --- | --- | --- | --- | --- |
| C=CC(=O)N1CCN(c2nc(=O)n(-c3c(C)ccnc3C(C)C)c3nc(-c4c(O)cccc4F)c(F)cc23)[C@@H](C)C1 [AMG510] | 0.075 | 0.141 | 0.091 | > 10 | Below detection limit | Below detection limit |  |  |
| C=C(F)C(=O)N1CCN(c2nc(OC[C@@H]3CCCN3C)nc3c2CCN(c2cccc4cccc(Cl)c24)C3)C[C@@H]1CC#N [MRTX849] | 0.018 | 0.01 | 0.004 | 3.93 |  |  | 8 | 69.8 |
